Reference: US20220401391A1, “METHODS AND COMPOSITIONS FOR TREATING PAIN” (Apkarian Technologies LLC, priority 2019, published 2022)
“Also recorded” adds a separate entry of the source.

Legend:
[1] = test system: subacute back pain (SBP) participants; assay: Double-blind randomized trial of LDP+NPX vs PLC+NPX in subacute back pain; phone NRS pain ratings; type: in vivo, human; conditions: for One-week average pain ratings, pain intensity (0-10), Mean ± SEM: phone NRS 0-10 scale
Excerpt: The main outcome measure was a Numerical Rating Scale (NRS),^19 where “0” corresponds to no pain and “10” indicates worst possible pain. On this scale, participants provided ratings of their current pain up to three times a day during study participation (6 months), via a smartphone app (phone NRS).
Treatment-related percentage residual pain was computed relative to the average phone-NRS score from the week preceding start of treatment, for every subject and every day, and then averaged across subjects for each treatment type (FIG. 2A). Over the treatment period, a rapid decrease in back pain intensity was observed that, in the NoTx group, stabilizes (with large fluctuations) at around 80% residual pain, while in the LDP+NPX and PLC+NPX groups residual pain continues to decrease for the duration of treatment, reaching a residual pain of about 50%. […] Remarkably in all three groups, the observed pain relief persisted after cessation of treatment, over the next 12 weeks.
This 24-week double-blind parallel randomized controlled trial was conducted at Northwestern University (Chicago, USA). Protocol and informed consent form were approved by Northwestern University IRB as well as NIDCR/NIH. All enrolled participants provided written informed consent. Safety and trial oversight were monitored by an independent data safety monitoring board and a clinical research organization, with NIDCR/NIH oversight. The trial was registered on ClinicalTrials.gov, under registry NCT01951105.
• Eligible subjects first underwent a brain imaging session and, using predefined brain-derived parameters, were stratified into high and low-risk subgroups for transitioning to CBP. Those in the low-risk category, who had 60% or higher probability of recovering naturally, entered the NoTx arm; the rest, who had less than 60% probability of recovering naturally, were randomized between a placebo-control arm, and a pharmacological treatment arm. A flexible dose escalation procedure was used and both researchers and participants were blinded to treatment type. Study medications were tapered off at week 12, and participants continued to be evaluated for another 12 weeks. At final visit, participants underwent a second brain scan.
The design was setup to evaluate safety, efficacy and gender dependence of the combination of carbidopa/levodopa (12.5 mg/50 mg-25 mg/100 mg-50 mg/200 mg, dose escalation based on response) plus naproxen 250 mg (LDP+NPX) administered three times a day, compared to placebo plus naproxen 250 mg (PLC+NPX) administered three times a day.
Treatment with carbidopa/levodopa was titrated up to 12.5 mg/50 mg three times/day over one week and then continued at that level for 4 weeks. If by the end of the initial 4-week period the participant “responded” [had >20% decrease in pain intensity from the average of all phone NRS ratings collected at baseline (between visit 1 and visit 3) to the average of all phone NRS ratings during those 5 weeks], the participant was maintained on that dose for the duration of the treatment period (12 weeks total). If there was no response, the carbidopa/levodopa dose was increased to 25 mg/100 mg three times/day for the following 4 weeks, at which time the pain status was re-evaluated (based on the average of all phone NRS rating during those four weeks, against baseline average). Again, if a response occurred, that dose was maintained in a blinded manner for the following 4 weeks of treatment; if not, further dose-titration carbidopa/levodopa occurred to 50 mg/200 mg three times/day for the final 4 weeks. When a participant experienced an adverse event at higher doses, the participant was given the next lower dose that s/he was able to tolerate and then maintained on that dose for the remainder of the 12-week dosing period. Naproxen dose (250 mg three times/day) remained constant for all participants throughout the study, except it was not given during the tapering down at the end of the study. […]

[2] = human, in vivo
Method: The study consisted of eight visits spread over ˜28 weeks, which included an initial screening/monitoring period (˜2 weeks), followed by a treatment period (12 weeks) and a post-treatment observational period (12 weeks). Safety and adverse events were assessed at each clinical visit, including vital signs. At each visit, researchers reminded participants to take their medication according to instructions. Safety was also assessed through blood screenings at baseline, while blood pressure, pulse and temperature were assessed at all study visits.
Adverse events (AEs) that occurred during treatment and those that occurred after treatment were differentiated. However, to account for potential late onset AEs or those related to withdrawal of medication, AEs occurring during a certain window after treatment were considered to be “during treatment”.
Analyses were done using MATLAB 2016a, JMP Pro version 13.2 (SAS Institute, Cary, N.C.) and SPSS version 25. Safety analyses included all participants who received at least one dose of the study drug.

Substance | Response rates across response criteria (80%-20% residual pain), in words ([1]; 3 and 6 months, by gender) | One-week average pain ratings, pain intensity (0-10), Mean ± SEM ([1]; 3 months (end of treatment)) | One-week average pain ratings, pain intensity (0-10), Mean ± SEM ([1]; 6 months (3 months after end of treatment)) | One-week average pain ratings, pain intensity (0-10), Mean ± SEM ([1]; BL (baseline)) | Efficacy by gender (residual pain, in words) ([1]; females vs males, residual pain at six months) | Males showing at least 80% improvement ([1]; males) | Residual pain reached over duration of treatment ([1]; relative to average phone-NRS of week preceding treatment, 12-week treatment) | Safety / tolerability in words [2]
placebo+naproxen [PLC+NPX] | less effective yielding similar response rates in males and females; also recorded: less effective and similar among males and females | 2.4 ± 0.4 | 2.2 ± 0.4 | 5.1 ± 0.3 | more effective than LDP+NPX in males | 38% | about 50% | 
levodopa/carbidopa [LDP] |  |  |  |  |  |  |  | No adverse effects specifically linked to LDP use were observed
